{"source": "patent US7902399B2", "about": "“Fatty acids analogous” (Thia Medica AS, priority 2000, dated 2011)", "origin": "cited, not measured here", "settings": "rat"}
{"smiles": "CCCCCCCCCCCCCCSCC(=O)O", "note": "[TTA]", "values": [{"measurement": "metabolite formation in vivo (Δ9-desaturase)", "result": "a desaturated product of TTA is formed in vivo"}]}
